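Compound exposure: 48 hours, 5 concentrations, 96-well plates. The concentration for full growth arrest is given as TGI.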
Key:
Assay in all cases: NCI-60 cell line screen, 48 h
786-0 renal = tested on: 786-0 renal
A498 renal = tested on: A498 renal
A549 NSCLC = tested on: A549 NSCLC
ACHN renal = tested on: ACHN renal
CCRF-CEM leukemia = tested on: CCRF-CEM leukemia
COLO 205 colon = tested on: COLO 205 colon
DLD-1 colon = tested on: DLD-1 colon
DMS 114 small cell lung = tested on: DMS 114 small cell lung
DMS 273 small cell lung = tested on: DMS 273 small cell lung
EKVX NSCLC = tested on: EKVX NSCLC
HCC-2998 colon = tested on: HCC-2998 colon
HCT-116 colon = tested on: HCT-116 colon
HCT-15 colon = tested on: HCT-15 colon
HL-60(TB) leukemia = tested on: HL-60(TB) leukemia
HOP-18 NSCLC = tested on: HOP-18 NSCLC
HOP-62 NSCLC = tested on: HOP-62 NSCLC
HOP-92 NSCLC = tested on: HOP-92 NSCLC
HT29 colon = tested on: HT29 colon
IGROV1 ovarian = tested on: IGROV1 ovarian
K-562 leukemia = tested on: K-562 leukemia
KM20L2 colon = tested on: KM20L2 colon
LXFL 529 NSCLC = tested on: LXFL 529 NSCLC
M14 melanoma = tested on: M14 melanoma
M19-MEL melanoma = tested on: M19-MEL melanoma
MALME-3M melanoma = tested on: MALME-3M melanoma
MOLT-4 leukemia = tested on: MOLT-4 leukemia
NCI-H226 lung = tested on: NCI-H226 lung
NCI-H23 lung = tested on: NCI-H23 lung
NCI-H522 lung = tested on: NCI-H522 lung
OVCAR-4 ovarian = tested on: OVCAR-4 ovarian
OVCAR-8 ovarian = tested on: OVCAR-8 ovarian
RPMI-8226 leukemia = tested on: RPMI-8226 leukemia
RXF 393 renal = tested on: RXF 393 renal
SF-268 CNS = tested on: SF-268 CNS
SF-295 CNS = tested on: SF-295 CNS
SF-539 CNS = tested on: SF-539 CNS
SK-MEL-28 melanoma = tested on: SK-MEL-28 melanoma
SK-MEL-5 melanoma = tested on: SK-MEL-5 melanoma
SK-OV-3 ovarian = tested on: SK-OV-3 ovarian
SN12C renal = tested on: SN12C renal
SNB-19 CNS = tested on: SNB-19 CNS
SNB-75 CNS = tested on: SNB-75 CNS
SNB-78 CNS = tested on: SNB-78 CNS
SR leukemia = tested on: SR leukemia
SW-620 colon = tested on: SW-620 colon
U251 CNS = tested on: U251 CNS
UACC-257 melanoma = tested on: UACC-257 melanoma
UACC-62 melanoma = tested on: UACC-62 melanoma
UO-31 renal = tested on: UO-31 renal
KM12 colon = tested on: KM12 colon
LOX IMVI melanoma = tested on: LOX IMVI melanoma
NCI-H460 lung = tested on: NCI-H460 lung
OVCAR-3 ovarian = tested on: OVCAR-3 ovarian
OVCAR-5 ovarian = tested on: OVCAR-5 ovarian
SK-MEL-2 melanoma = tested on: SK-MEL-2 melanoma
TK-10 renal = tested on: TK-10 renal
XF 498 CNS = tested on: XF 498 CNS

Measured: TGI

C=CCOC(C)n1c(C)cc(=O)n(C(C)OCC=C)c1=O (stereo not drawn)
> 100 µM: 786-0 renal | A498 renal | A549 NSCLC | ACHN renal | CCRF-CEM leukemia | COLO 205 colon | DLD-1 colon | DMS 114 small cell lung | DMS 273 small cell lung | EKVX NSCLC | HCC-2998 colon | HCT-116 colon | HCT-15 colon | HL-60(TB) leukemia | HOP-18 NSCLC | HOP-62 NSCLC | HOP-92 NSCLC | HT29 colon | IGROV1 ovarian | K-562 leukemia | KM20L2 colon | LXFL 529 NSCLC | M14 melanoma | M19-MEL melanoma | MALME-3M melanoma | MOLT-4 leukemia | NCI-H226 lung | NCI-H23 lung | NCI-H522 lung | OVCAR-4 ovarian | OVCAR-8 ovarian | RPMI-8226 leukemia | RXF 393 renal | SF-268 CNS | SF-295 CNS | SF-539 CNS | SK-MEL-28 melanoma | SK-MEL-5 melanoma | SK-OV-3 ovarian | SN12C renal | SNB-19 CNS | SNB-75 CNS | SNB-78 CNS | SR leukemia | SW-620 colon | U251 CNS | UACC-257 melanoma | UACC-62 melanoma | UO-31 renal

Nc1nc(-c2ccco2)cc(-c2ccco2)n1
> 100 µM: 786-0 renal | A549 NSCLC | ACHN renal | CCRF-CEM leukemia | COLO 205 colon | DMS 114 small cell lung | DMS 273 small cell lung | EKVX NSCLC | HCT-116 colon | HCT-15 colon | HL-60(TB) leukemia | HOP-62 NSCLC | HT29 colon | IGROV1 ovarian | K-562 leukemia | KM12 colon | KM20L2 colon | LOX IMVI melanoma | LXFL 529 NSCLC | M14 melanoma | M19-MEL melanoma | MALME-3M melanoma | MOLT-4 leukemia | NCI-H226 lung | NCI-H23 lung | NCI-H460 lung | NCI-H522 lung | OVCAR-3 ovarian | OVCAR-4 ovarian | OVCAR-5 ovarian | OVCAR-8 ovarian | RPMI-8226 leukemia | RXF 393 renal | SF-268 CNS | SF-295 CNS | SF-539 CNS | SK-MEL-2 melanoma | SK-MEL-28 melanoma | SK-MEL-5 melanoma | SN12C renal | SNB-19 CNS | SNB-75 CNS | SR leukemia | SW-620 colon | TK-10 renal | U251 CNS | UACC-62 melanoma | UO-31 renal | XF 498 CNS
